Reference: US9046782B2, “Resist composition for negative tone development and pattern forming method using the same” (FUJIFILM Corporation, priority 2007, dated 2015)

Assay: Vapor pressure of solvents for negative tone development and rinsing
Conditions: value at 20° C.
In the case of `CCCOCCC` [Dipropyl ether], the “Vapor Pressure” value is reported as 8.33 kPa. In the case of `CCCCCCO` [1-Hexanol], the “Vapor Pressure” value is reported as 0.13 kPa. In the case of `CCCCOC(C)=O` [Butyl acetate], the “Vapor Pressure” value is reported as 1.2 kPa. For `CCCCCCCCCC` [Decane], the “Vapor Pressure” value was 0.17 kPa. For `CCCCCCCO` [1-Heptanol], the “Vapor Pressure” value was 0.015 kPa. For `CC(=O)CC(C)C` [Methyl isobutyl ketone], the “Vapor Pressure” value was 2.1 kPa. In the case of `CCCCC(C)=O` [2-Hexanone], the “Vapor Pressure” value is reported as 0.36 kPa. In the case of `CC(=O)OCCC(C)C` [Isoamyl acetate], the “Vapor Pressure” value is reported as 0.53 kPa. With `CCCCCC(C)O` (stereo not drawn) [2-Heptanol] the “Vapor Pressure” value was 0.133 kPa. In the case of `CCCCCCCCCCCC` [Dodecane], the “Vapor Pressure” value is reported as 0.04 kPa. For `CCC(C)=O` [Methyl ethyl ketone], the “Vapor Pressure” value was 10.5 kPa. In the case of `CC(C)CCO` [3-Methyl-1-butanol], the “Vapor Pressure” value is reported as 0.4 kPa.
